# Laboratory results from PubChem BioAssay AID434951 (Broad Institute, 2010).
# Calls of active or inactive are those of the source.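 How the source made its calls: active means a fitted half-maximal concentration EC50 for the rise in nuclear signal no higher than ten times the top dose tested; inconclusive means flat fit with activity between 30% and 70%, or unusable fit; inactive means EC50 beyond ten times the top dose.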
# Biological target: Hypoxia-inducible factor 1-alpha (Homo sapiens) (UniProt Q16665)
# Sequence (Q16665 whole entry, looked up): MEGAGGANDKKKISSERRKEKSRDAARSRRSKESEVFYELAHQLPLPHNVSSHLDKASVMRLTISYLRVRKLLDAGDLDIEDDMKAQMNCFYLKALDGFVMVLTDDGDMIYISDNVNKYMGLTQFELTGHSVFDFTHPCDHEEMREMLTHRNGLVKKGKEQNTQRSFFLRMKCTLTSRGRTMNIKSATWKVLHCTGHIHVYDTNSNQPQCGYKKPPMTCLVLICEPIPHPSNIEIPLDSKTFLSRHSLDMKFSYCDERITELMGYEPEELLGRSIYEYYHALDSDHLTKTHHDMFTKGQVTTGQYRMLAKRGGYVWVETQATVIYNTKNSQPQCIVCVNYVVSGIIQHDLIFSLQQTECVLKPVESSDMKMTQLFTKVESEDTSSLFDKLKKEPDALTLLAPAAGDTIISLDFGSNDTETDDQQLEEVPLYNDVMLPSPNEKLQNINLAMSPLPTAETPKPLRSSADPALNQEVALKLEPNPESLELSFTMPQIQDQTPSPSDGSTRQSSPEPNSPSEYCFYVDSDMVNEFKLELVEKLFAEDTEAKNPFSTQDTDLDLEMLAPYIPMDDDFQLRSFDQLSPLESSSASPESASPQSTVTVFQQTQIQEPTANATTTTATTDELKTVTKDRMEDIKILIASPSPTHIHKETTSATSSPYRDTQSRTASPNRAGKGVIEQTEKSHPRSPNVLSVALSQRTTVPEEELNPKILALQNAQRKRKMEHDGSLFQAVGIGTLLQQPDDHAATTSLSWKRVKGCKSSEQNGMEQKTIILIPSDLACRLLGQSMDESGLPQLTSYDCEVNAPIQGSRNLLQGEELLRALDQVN
# Experiment: activators of HIF1alpha nuclear accumulation, confirmation, imaging, fluorescence, U2OS GFP-HIF1alpha (AID 434951)
# Details: U2OS GFP-HIF1alpha nuclear intensity, high-content imaging
row,SMILES,EC50
1,COCCn1c(-c2ccc(OC)cc2)cnc1SCC(=O)Nc1ccc(OC)cc1OC,> 35 µM (inactive)
2,CC(C)(C)c1ccc(N2C(=O)CC(C/C=C/c3ccccc3)C2=O)cc1 (configuration not stated),> 35 µM (inactive)
3,Cc1nc2cc(-c3ccccc3)sc2c(=O)n1N,> 35 µM (inactive)
4,CCOc1ccc(N2CC(C(=O)Nc3ccccc3C(=O)NC3CC3)CC2=O)cc1 (configuration not stated),> 35 µM (inactive)
5,CC(C)C(=O)NC(c1ccco1)c1ccc2cccnc2c1O (configuration not stated),4.47 µM
6,CCOCCCNC(=S)Nc1cc(C)cc(C)c1,> 35 µM (inactive)
7,O=C1CC(Nc2ccccc2)C(=O)N1Cc1ccccc1 (configuration not stated),> 35 µM (inactive)
8,CCC1Oc2ccccc2N(CC(=O)Nc2ccccc2OC)C1=O (configuration not stated),> 35 µM (inactive)
9,C=CCN(c1ccccc1)S(=O)(=O)c1cccc(C(=O)Nc2ncccc2O)c1,> 35 µM (inactive)
10,C/C(=C\C(=O)OCC(=O)NCc1ccccc1)C(=O)OCC(=O)NCc1ccccc1,> 35 µM (inactive)
11,N#Cc1ccccc1OCCCN1CCC(Cc2ccccc2)CC1,> 35 µM (inactive)
12,Cc1nnc(-c2ccccc2)nc1N(C)C,> 35 µM (inactive)
13,CCOc1cc(/C=N/NC(=O)c2c(-c3ccccc3)noc2C)ccc1O,> 35 µM (inactive)
14,COC(=O)c1ccc(-n2cncn2)c([N+](=O)[O-])c1,> 35 µM (inactive)
15,CCOC(=O)N1CCN(c2ccc(Cl)c(Cl)c2)CC1,> 35 µM (inactive)
16,COc1ccccc1-c1cc(C(F)(F)F)nc(S(=O)(=O)CCCC(=O)N2CCCCC2C)n1 (configuration not stated),> 35 µM (inactive)
17,COC(=O)CC1C(=O)NCCN1C(=O)CSc1nnc(Nc2ccc(OC)cc2)s1 (configuration not stated),> 35 µM (inactive)
18,Cc1ccc(C)c(S(=O)(=O)N2CCN(Cc3ccc(O)c4ncccc34)CC2)c1,6.84 µM
19,O=C(COC(=O)c1ccccc1Nc1ccccc1)NCc1ccccc1Cl,> 35 µM (inactive)
20,COC(=O)C1=C(C)N(Cc2ccc(OC)cc2)C(=O)C1,> 35 µM (inactive)
21,COc1ccc(N2CCN(S(=O)(=O)c3cc(-c4cc(C)no4)ccc3C(C)C)CC2)cc1,> 35 µM (inactive)
22,CCOc1cccc(/C=N/Nc2ccc(S(=O)(=O)N(CC)CC)cn2)c1O,3.59 µM
23,COc1ccc(OC)c2sc(N3CCN(C(=O)c4ccc5ncsc5c4)CC3)nc12,> 35 µM (inactive)
24,CC(=O)NC(c1ccc2ccccc2c1)c1ccc2cccnc2c1O (configuration not stated),8.56 µM
25,CCCCC(=O)NC(c1ccccc1Cl)c1ccc2cccnc2c1O (configuration not stated),3.16 µM
26,CCOC(=O)/C(C#N)=C/C=C1\C=Cc2ccccc2N1CC,> 35 µM (inactive)

row,SMILES,EC50
1,CCCCCC(=O)NNC(=S)NC(=O)c1cccc([N+](=O)[O-])c1,> 35 µM (inactive)
2,CCCNC(=O)c1cc(-c2ccco2)on1,5.66 µM
3,Cc1sc2cc3c(c(C(=O)c4ccccc4)[n+]2c1C)-c1cccc2cccc-3c12,> 35 µM (inactive)
4,CC(=O)Nc1ccc2nc(NC(=O)COc3ccccc3C)sc2c1,> 35 µM (inactive)
5,CCN(CC)CCNC1=CC(=O)OC12CCCCC2,> 35 µM (inactive)
6,C/C(=N\OCc1nc2ccccc2c(=O)n1/N=C/c1cc(C)cc([N+](=O)[O-])c1O)c1ccccc1,> 35 µM (inactive)
7,Cc1cc(/C=N/n2c(COc3ccccc3)nc3ccccc3c2=O)c(O)c([N+](=O)[O-])c1,24.5 µM
8,O=C(N/N=C/c1c(O)ccc2ccccc12)c1[nH]ncc1Br,7.11 µM
9,COc1cccc2sc(Nc3nc(-c4ccccn4)cs3)nc12,6.13 µM
10,Cn1c(=O)cc(C(=O)N/N=C/c2ccc(F)cc2)[nH]c1=O,> 35 µM (inactive)
11,O=C(Nc1ccc(Cl)cc1)NN1CC(=O)N(c2cccc(C(F)(F)F)c2)CC1=O,> 35 µM (inactive)
12,CC(C)Sc1nc(N)c2c3c(sc2n1)CN(C)CC3,> 35 µM (inactive)
13,O=C(NCC1CCCO1)c1cc(-c2ccccc2F)no1 (configuration not stated),21.7 µM
14,Cc1ccc(S(=O)(=O)/N=C2/NC(=O)/C(=C/c3cc([N+](=O)[O-])ccc3O)S2)cc1,> 35 µM (inactive)
15,CCC(Cc1ccccc1)n1c(=S)[nH]c2ccccc2c1=O (configuration not stated),> 35 µM (inactive)
16,CCOC(=O)C1CCCN(C(=O)c2ccc3oc(CCc4ccccc4)nc3c2)C1 (configuration not stated),> 35 µM (inactive)
17,CCCn1c(=NC(=O)c2c(-c3c(F)cccc3Cl)noc2C)c(C(=O)OCC)cc2c(=O)n3ccccc3nc21,22.2 µM
18,O=C(c1cccnc1)c1cc2ccccc2[nH]1,> 35 µM (inactive)
19,CNC(=O)C1CC(=O)N(c2ccc(OCC(=O)N3CCCC3)cc2)C1 (configuration not stated),> 35 µM (inactive)
20,O=C(C1=C[C@@H](C2CC2)C[C@@H](OCCCCO)O1)N1CCN(Cc2ccc3c(c2)OCO3)CC1,> 35 µM (inactive)
21,CC(C)NC(=O)NC(=O)CSc1nnc(-c2ccccc2F)n1N,> 35 µM (inactive)
22,COc1cc(C(=O)Oc2ccccc2/C=N/NC(=O)c2ccc(C)cc2)cc(OC)c1OC,13.8 µM
23,O=C(Nc1nc(-c2ccccn2)cs1)c1ccc(S(=O)(=O)N2CCCCC2)cc1,7.12 µM
24,COc1ccc(NC(=O)Nc2ccc(CC(=O)O)cc2)cc1,> 35 µM (inactive)
25,CCCCCCn1nc(C(=O)Nc2nc3c(s2)CCCC3)c2ccccc2c1=O,> 35 µM (inactive)
26,Cc1ccc(C(=O)NC(=S)NNS(=O)(=O)c2ccc(C)cc2)cc1,> 35 µM (inactive)

row,SMILES,EC50
1,CCOc1ccccc1CN1CCN(S(C)(=O)=O)CC1,> 35 µM (inactive)
2,CCn1nc(C(=O)OCC(=O)NC(C)C)c2ccccc2c1=O,> 35 µM (inactive)
3,O=C(NNC(=O)c1ccccc1Br)c1ccc(Cl)cc1,> 35 µM (inactive)
4,O=C(CNC(=O)c1ccccc1Br)N/N=C/c1cc(Br)ccc1O,6.52 µM
5,O=C(CCCc1ccccc1)Nc1ccccn1,> 35 µM (inactive)
6,CC1SC(=NC(=O)c2ccncc2)NC1=O (configuration not stated),> 35 µM (inactive)
7,Cc1noc(C)c1COC(=O)C1CC(O)CN1S(=O)(=O)c1ccc(Cl)cc1 (configuration not stated),> 35 µM (inactive)
8,CCN(CC)c1ccc(/C=N/NC(=O)c2ccc3nc[nH]c3c2)c(O)c1,10.5 µM
9,Cc1cccc2sc(NNC(=O)c3ccc(S(=O)(=O)N4CCc5ccccc5C4)cc3)nc12,11.2 µM
10,O=C(CC1SC(N2CCCC2)=NC1=O)Nc1ccc(C(=O)Nc2ncccc2O)cc1 (configuration not stated),29.7 µM
11,CCOc1ccc(C(=O)NC(=S)Nc2cccc(NC(=O)c3ccco3)c2)cc1[N+](=O)[O-],> 35 µM (inactive)
12,CCCCn1c(=O)c2c(O)cc(=O)oc2c2ccccc21,> 35 µM (inactive)
13,Cc1nnc(-c2ccccc2)c(=O)n1/N=C/c1c(O)ccc2ccccc12,8.4 µM
14,CC(C)N(c1ccccc1)c1ncnc(NCCC(=O)O)c1[N+](=O)[O-],> 35 µM (inactive)
15,CN(Cc1cccs1)C(=O)CSc1nc(N)cc(N)n1,> 35 µM (inactive)
16,Cc1ccccc1-n1c(=O)n(Cc2ccc(C(=O)O)cc2)c(=O)c2[nH]cnc21,> 35 µM (inactive)
17,CCOc1ccccc1NC(=O)CSc1ncnc2c1oc1ccccc12,> 35 µM (inactive)
18,O=C1C(=O)c2ccccc2C(O)=C1c1cccc([N+](=O)[O-])c1,> 35 µM (inactive)
19,OCCNc1c2ccccc2nc2ccccc12,32.4 µM
20,O=C(CN1CCCc2ccccc21)N/N=C/c1c(O)ccc2ccccc12,36.5 µM
21,COc1ccc2nc(-c3cccc(N)c3)[nH]c2c1,> 35 µM (inactive)
22,COc1ccc(OC)c2[nH]c(C(=O)N/N=C/c3ccccc3O)cc12,6.61 µM
23,CN(C)/N=C/C=C1\CCC/C(=C/c2cccs2)C1=O,> 35 µM (inactive)
24,COc1ccc2nc(C)cc(SCC(=O)N/N=C/c3ccc(O)cc3O)c2c1,8.74 µM
25,Cc1ccc(NC(=O)CSc2ncc3ccccn23)cc1,> 35 µM (inactive)
26,Cn1c(CC(=O)Nc2ccccc2)cc2ccccc21,> 35 µM (inactive)

row,SMILES,EC50
1,O=C1C=C(c2ccccc2)CC(c2cccs2)C1n1cnc([N+](=O)[O-])c1 (configuration not stated),> 35 µM (inactive)
2,O=C(N/N=C/c1c(O)ccc2ccccc12)c1ccc(CO)nc1,6.6 µM
3,CCN(CC)S(=O)(=O)c1ccc(N/N=C/c2ccc(O)cc2O)nc1,0.715 µM
4,Cc1ccc(/C=N/NC(=O)c2ccc(Br)o2)s1,> 35 µM (inactive)
5,Cc1ccc(N=Nc2ccc(O)c(/C=N\NC(=O)c3ccc(N)cc3)c2)cc1C,> 35 µM (inactive)
6,COc1ccc(/C=N/NC(=S)Nc2cc(S(=O)(=O)N3CCOCC3)ccc2N2CCOCC2)cc1O,> 35 µM (inactive)
7,COc1ccc(OC)c(NC2=NCCCS2)c1,> 35 µM (inactive)
8,COc1cccc(/C=N/NC(=O)CNC(=O)C(c2ccccc2)c2ccccc2)c1O,> 35 µM (inactive)
9,O=C(N/N=C(\Cc1ncc[nH]1)c1ccccc1)c1ccccc1,> 35 µM (inactive)
10,CCCC(=O)NC(c1ccc(Cl)cc1Cl)c1ccc2cccnc2c1O (configuration not stated),2.35 µM
11,O=[N+]([O-])c1ccc(N/N=C/c2ccccc2O)cc1,> 35 µM (inactive)
12,CC1CC(C)CN(S(=O)(=O)c2ccc3c(c2)oc(=O)n3CC(=O)NCCCOC(C)C)C1 (configuration not stated),> 35 µM (inactive)
13,N#CCC(=O)N/N=C/c1ccc(SCC(=O)Nc2ccccc2)o1,> 35 µM (inactive)
14,CC(C)C(=O)N1CCN(c2ccc(NC(=O)COc3ccccc3[N+](=O)[O-])cc2)CC1,> 35 µM (inactive)
15,O=C(CCCCCN1C(=O)c2ccccc2C1=O)Nc1ccc2c(c1)OCCO2,> 35 µM (inactive)
16,C=CCN1C(=O)c2ccccc2Sc2ccc(C(=O)N3CCN(C)CC3)cc21,> 35 µM (inactive)
17,CCn1c(C)nc2cc(C(=O)N/N=C/c3cccc(O)c3O)ccc21,24.6 µM
18,NC(=O)CSc1nnc2ccc(-c3ccc(Cl)cc3)nn12,> 35 µM (inactive)
19,COc1ccc(Nc2nc(N/N=C/c3ccc(N(C)C)cc3)nc(C)c2[N+](=O)[O-])cc1,> 35 µM (inactive)
20,CCOC(=O)N1CCC(Nc2c(-c3ccccc3)c(=O)c2=O)CC1,> 35 µM (inactive)
21,O=S(=O)(CCSc1nc2ccccc2s1)c1nc2ccccc2s1,> 35 µM (inactive)
22,Cc1ccc(-c2nc(CS(=O)(=O)CC(=O)NC3CCC(C)CC3)c(C)o2)cc1 (configuration not stated),> 35 µM (inactive)
23,CCOc1nc(Nc2ccc(OC)cc2)nc(OCC)n1,> 35 µM (inactive)
24,CCN(CC)c1ccc(/C=N/Nc2nc(C)cc(=O)[nH]2)c(O)c1,34.4 µM
